The source made the active and inactive calls. The rule behind the calls is not given here.

The first data set relates to Rattus norvegicus. Briefly: Antiinflammatory activity in po dosed rat assessed as reduction of carrageenan-induced foot edema administered as two doses.
Settings: not given
Format: functional, organism-based. Background: In the carrageenan paw model, swelling and tenderness develop within hours.
Take `O=C(O)CCc1ccc(CC(=O)O)cc1`: the inhibition result was “inactive”.
For the compound `C/C=C/C(=O)c1ccc(-c2ccccc2)cc1`, the inhibition result is “inactive”.
On the same count and under the same terms, to `O=C(O)Cc1ccc(C(CC(=O)O)c2ccccc2)cc1` (configuration not stated) belongs “inactive”.

Test system in the next data set: not listed separately
Briefly: Acute toxicity in po dosed mouse. The format is organism-based. As to conditions: in vivo.
A word on the LD50: it is the dose expected to kill half of the subjects tested. Take `O=C(O)Cc1ccc(C2CC(=O)c3ccccc32)cc1` (configuration not stated): the LD50 was determined as 1600 mg/kg.
The same measure, in the same setting: to `CC(C(=O)O)c1ccc2c3c(cccc13)C(c1ccccc1)C2` (configuration not stated) belongs 1600 mg/kg; to `O=C(O)Cc1ccc2c(c1)C(=O)/C(=C/c1ccccc1)C2`, 1600 mg/kg.
`O=C(O)Cc1ccc2c(c1)C(=O)CC2` returned a 50% lethal dose (LD50) of 1600 mg/kg.
For `O=C(O)Cc1ccc2c3c(cccc13)C(c1ccccc1)C2` (configuration not stated), the median lethal dose (LD50) amounted to 400 mg/kg.
As for `O=C([O-])Cc1ccc2c(c1)CCC2C1CCCCC1.[Na+]` (configuration not stated), the LD50 stood at 1200 mg/kg.
For `O=C(O)Cc1ccc2c(c1)C(=O)/C(=C/c1ccc(Cl)cc1)C2`, the LD50 is 1600 mg/kg.
Compound `O=C1CC(c2ccccc2)c2ccccc21` (configuration not stated) had an LD50 of 1600 mg/kg.
Still for that read-out and setting: to `O=C(O)Cc1ccc2c(c1)C(=O)CC2C1CCCCC1` (configuration not stated) belongs 1200 mg/kg.
Same read-out and setting: in the case of `CC1CC(=O)c2cc(-c3ccccc3)ccc21` (configuration not stated) it was 1600 mg/kg; in that of `CC1CCc2cc(-c3ccccc3)ccc21` (configuration not stated), 1600 mg/kg.
Compound `O=C(O)CCC1CC(c2ccccc2)c2ccccc21` (configuration not stated) registered a median lethal dose (LD50) of 300 mg/kg.
Still for that read-out and setting: to `O=C(O)CC1CC(c2ccccc2)c2ccccc21` (configuration not stated) belongs 1600 mg/kg.

Another data set concerns Rattus norvegicus. The data set is described as follows: Antiinflammatory activity against rat adjuvant arthritis model assessed as reduction of swelling in non-injected foot at 33 mg/kg, po administered for 16 days. Format: functional. The settings on record: 384 h.
As a reminder, the inhibition in vivo is the percentage by which the read-out fell short of the control. On to `CCCCC1C(=O)N(c2ccccc2)N(c2ccccc2)C1=O` [PHENYLBUTAZONE], for which the inhibition in vivo at 33 mg/kg is 42%.

The next data set has as its system Rattus norvegicus. Briefly: Antiinflammatory activity against rat adjuvant arthritis model assessed as reduction of swelling in non-injected foot at 50 mg/kg, po administered for 16 days. Format: functional. The settings on record: 384 h.
On to `CC(C(=O)O)c1ccc2c3c(cccc13)C(c1ccccc1)C2` (configuration not stated), for which the inhibition in vivo at 50 mg/kg is 50%.
`CC1CCc2cc(-c3ccccc3)ccc21` (configuration not stated): the inhibition in vivo at 50 mg/kg was 32%.
The same measure, in the same setting: to `CCCCC1C(=O)N(c2ccccc2)N(c2ccccc2)C1=O` [PHENYLBUTAZONE] belongs 50%.

A further data set concerns Rattus norvegicus. The data set is described as follows: Antiinflammatory activity in rat assessed as reduction of carrageenan-induced foot edema at 50 mg/kg, po administered as two doses. Format: functional.
Settings: not given
As for `C[C@]12CCC(=O)C=C1CC[C@@H]1[C@@H]2[C@@H](O)C[C@@]2(C)[C@H]1CC[C@]2(O)C(=O)CO` [HYDROCORTISONE], the inhibition in vivo at 50 mg/kg amounted to 51%.
`CCCCC1C(=O)N(c2ccccc2)N(c2ccccc2)C1=O` [PHENYLBUTAZONE]: the inhibition in vivo at 50 mg/kg stood at 30%.

The test system of a further data set is Rattus norvegicus. Briefly: Antiinflammatory activity in rat assessed as reduction of carrageenan-induced foot edema at 25 mg/kg, po administered as two doses. The format is functional.
Settings: not given
As to `O=C(O)CCC1CC(c2ccccc2)c2ccccc21` (configuration not stated), the inhibition in vivo at 25 mg/kg is 0%.

A further data set has as its system Rattus norvegicus. Briefly: Antiinflammatory activity against rat adjuvant arthritis model assessed as reduction of swelling in non-injected foot at 100 mg/kg, po administered for 16 days. Format: functional. The settings on record: 384 h.
On to `O=C(O)Cc1ccc(C2CC(=O)c3ccccc32)cc1` (configuration not stated), for which the inhibition in vivo at 100 mg/kg is 52%.
Same read-out and setting: to `O=C(O)Cc1ccc2c(c1)C(=O)/C(=C/c1ccccc1)C2` belongs 25%; to `O=C(O)Cc1ccc2c3c(cccc13)C(c1ccccc1)C2` (configuration not stated), 0%; to `O=C(O)Cc1ccc2c(c1)C(=O)/C(=C/c1ccc(Cl)cc1)C2`, 43%.
On to `CC(C(=O)O)c1ccc2c(c1)C(=O)/C(=C/c1ccc(Cl)cc1)C2` (configuration not stated), for which the inhibition in vivo at 100 mg/kg stood at 53%.
On the same count and under the same terms, to `O=C1CC(c2ccccc2)c2ccccc21` (configuration not stated) belongs 36%.

For another data set, the system named is Rattus norvegicus. The data set is described as follows: Antiinflammatory activity in rat assessed as reduction of carrageenan-induced foot edema at 100 mg/kg, po administered as two doses. Format: functional.
Settings: not given
Take `O=C(O)Cc1ccc(C2CC(=O)c3ccccc32)cc1` (configuration not stated): the inhibition in vivo at 100 mg/kg was determined as 36%.
As to `CC(C(=O)O)c1ccc2c3c(cccc13)C(c1ccccc1)C2` (configuration not stated), the inhibition in vivo at 100 mg/kg came out at 44%.
As to `O=C(O)Cc1ccc2c(c1)C(=O)/C(=C/c1ccccc1)C2`, the inhibition in vivo at 100 mg/kg was determined as 26%.
On to `O=C(O)Cc1ccc2c(c1)C(=O)CC2`, for which the inhibition in vivo at 100 mg/kg worked out at 0%.
The same measure, in the same setting: in the case of `O=C(O)Cc1ccc2c3c(cccc13)C(c1ccccc1)C2` (configuration not stated) it was 53%; in that of `O=C([O-])Cc1ccc2c(c1)CCC2C1CCCCC1.[Na+]` (configuration not stated), 28%; in that of `O=C(O)Cc1ccc2c(c1)C(=O)/C(=C/c1ccc(Cl)cc1)C2`, 0%.
With `O=C1CC(c2ccccc2)c2ccccc21` (configuration not stated), the inhibition in vivo at 100 mg/kg is 48%.
On to `O=C(O)Cc1ccc2c(c1)C(=O)CC2C1CCCCC1` (configuration not stated), for which the inhibition in vivo at 100 mg/kg came to 8%.
The same measure, in the same setting: to `CC1CC(=O)c2cc(-c3ccccc3)ccc21` (configuration not stated) belongs 7%; to `CC1CCc2cc(-c3ccccc3)ccc21` (configuration not stated), 35%; to `O=C(O)CC1CC(c2ccccc2)c2ccccc21` (configuration not stated), 0%.

The test system of a further data set is Rattus norvegicus. The data set is described as follows: Antiinflammatory activity against rat adjuvant arthritis model assessed as reduction of swelling in non-injected foot at 1 mg/kg, po administered for 16 days. The format is functional. As to conditions: 384 h.
Regarding `COc1ccc2c(c1)c(CC(=O)O)c(C)n2C(=O)c1ccc(Cl)cc1` [INDOMETHACIN], the inhibition in vivo at 1 mg/kg was determined as 57%.

The values above are taken from ChEMBL document CHEMBL3243932, “Potential antiinflammatory compounds. 3. Compounds derived from acenaphthene and indan” (J Med Chem, 1979).
